Experimental data reported in US5126246A, “Reagent for analysis of triglycerides and analysis using the same” (priority 1988, dated 1992).
Where “and” joins values, the source holds several entries; their conditions need not be identical. Equal entries are not always repeated.

system: Pancreatic lipase and the monoglyceride lipase; assay: Glycerol liberated from α,β-diglyceride substrates by pancreatic lipase plus monoglyceride lipase; assay type: biochemical; conditions: pancreatic lipase and monoglyceride lipase applied
Text: (2) Substrate specificity of the monoglyceride lipase upon use of α,β-diglyceride as a substrate:
(§1) (i) Pancreatic lipase and the monoglyceride lipase are applied to the below-described α,β-diglyceride substrates. Their α-positions are hydrolyzed by the pancreatic lipase and then the resulting β-monoglycerides are allowed to react with the monoglyceride lipase, in order to analyze glycerol thus liberated. Glycerol is detected with respect to the substrates, namely,α-oleyl-β-palmitoyldiglyceride, α-palmitoly-β-oleolyldiglyceride and α,β-dilinoleylglyceride. However, glycerol is not detected when only pancreatic lipase is used.

| SMILES | Glycerol liberated |
| --- | --- |
| CCCCCCCC/C=C\CCCCCCCC(=O)OCC(CO)OC(=O)CCCCCCCCCCCCCCC (stereo not drawn) [α-oleyl-β-palmitoyldiglyceride] | detected |
| CCCCC/C=C\C/C=C\CCCCCCCC(=O)OCC(CO)OC(=O)CCCCCCC/C=C\C/C=C\CCCCC (stereo not drawn) [α,β-dilinoleylglyceride] | detected |
| CCCCCCCC/C=C\CCCCCCCC(=O)OC(CO)COC(=O)CCCCCCCCCCCCCCC (stereo not drawn) [α-palmitoly-β-oleolyldiglyceride] | detected |

system: monoglyceride lipase; assay: Effects of surface active agents and metal ions on the monoglyceride lipase; assay type: biochemical, Bacillus stearothermophilus H-165; conditions: Table 2
Protocol: The mon[…] is not affected by the addition of divalent metal ions such as Ca^++ and Mg^++.
MEASUREMENT METHOD OF ENZYMATIC ACTIVITY OF MON[…]
(§2) To 0.4 ml of a solution of the above composition, is added 50 μl of 10 mM monolaurin (0.5 % aqueous solution of "Triton X-100"). The resultant mixture is pre-incubated at 37° C. for 2-3 minutes and 50 μl of an enzyme solution is added to initiate a reaction. Exactly 10 minutes later, 2.5 ml of 5 % SDS (sodium dodecyl sulfate) is added to terminate the reaction. The absorbance is measured at 550 nm. Regarding the enzymatic activity, the activity capable of producing 1 μmole of glycerol per minute is defined at 1 Unit (1 U). The following equation is used for calculation of enzymatic activity (potency): [formula] wherein ΔA 550: Absorbance at the wavelength of 550 nm

| SMILES | Effect of added reagent on monoglyceride lipase activity |
| --- | --- |
| [Ca+2].[Cl-].[Cl-] [CaCl2, calcium chloride] | not affected |
| [Cl-].[Cl-].[Mg+2] [MgCl2, magnesium chloride] | not affected |
| C[C@H](CCC(=O)O)[C@H]1CC[C@H]2[C@@H]3[C@H](O)C[C@@H]4C[C@H](O)CC[C@]4(C)[C@H]3C[C@H](O)[C@]12C [Cholic acid] | inhibition of the activity is observed in the high concentration range |

same assay, conditions: reagent concentration 1 mM; no reagent 100; 10 min

| SMILES | Activity of lipase (%) |
| --- | --- |
| [Ca+2].[Cl-].[Cl-] [CaCl2, calcium chloride] | 100.0 |
| [Cl-].[Cl-].[Mg+2] [MgCl2, magnesium chloride] | 100.0 |
| O=C(O)CN(CCN(CC(=O)O)CC(=O)O)CC(=O)O [EDTA] | 86.0 |
| C[C@H](CCC(=O)O)[C@H]1CC[C@H]2[C@@H]3[C@H](O)C[C@@H]4C[C@H](O)CC[C@]4(C)[C@H]3C[C@H](O)[C@]12C [Cholic acid] | 100.0 |

same assay, conditions: reagent concentration 10 mM; no reagent 100

| SMILES | Activity of lipase (%) |
| --- | --- |
| C[C@H](CCC(=O)O)[C@H]1CC[C@H]2[C@@H]3[C@H](O)C[C@@H]4C[C@H](O)CC[C@]4(C)[C@H]3C[C@H](O)[C@]12C [Cholic acid] | 92.6 |

target: T1, pancreatic lipase (Sus scrofa, UniProt P00591); assay: Glycerol liberated from α,β-diglyceride substrates by pancreatic lipase only; assay type: biochemical; conditions: only pancreatic lipase used
T1 sequence (P00591 1-450): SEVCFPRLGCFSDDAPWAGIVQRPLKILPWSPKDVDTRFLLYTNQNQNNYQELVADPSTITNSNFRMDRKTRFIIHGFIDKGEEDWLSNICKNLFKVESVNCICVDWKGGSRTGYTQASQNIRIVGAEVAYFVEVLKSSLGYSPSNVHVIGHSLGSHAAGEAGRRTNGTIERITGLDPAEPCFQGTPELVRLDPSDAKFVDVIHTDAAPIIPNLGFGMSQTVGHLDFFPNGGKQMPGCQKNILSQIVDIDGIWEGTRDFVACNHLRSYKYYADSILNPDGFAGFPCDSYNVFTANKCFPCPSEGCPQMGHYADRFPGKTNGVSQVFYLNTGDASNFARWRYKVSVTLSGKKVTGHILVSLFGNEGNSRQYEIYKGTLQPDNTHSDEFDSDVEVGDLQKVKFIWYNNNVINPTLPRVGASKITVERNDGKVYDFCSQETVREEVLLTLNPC
Text: as §1

| SMILES | Glycerol liberated |
| --- | --- |
| CCCCCCCC/C=C\CCCCCCCC(=O)OCC(CO)OC(=O)CCCCCCCCCCCCCCC (stereo not drawn) [α-oleyl-β-palmitoyldiglyceride] | not detected |
| CCCCC/C=C\C/C=C\CCCCCCCC(=O)OCC(CO)OC(=O)CCCCCCC/C=C\C/C=C\CCCCC (stereo not drawn) [α,β-dilinoleylglyceride] | not detected |
| CCCCCCCC/C=C\CCCCCCCC(=O)OC(CO)COC(=O)CCCCCCCCCCCCCCC (stereo not drawn) [α-palmitoly-β-oleolyldiglyceride] | not detected |

system: monoglyceride lipase; assay: Substrate specificity of the monoglyceride lipase (enzymatic activity assay, glycerol formed); assay type: biochemical, Bacillus stearothermophilus H-165; conditions: diglyceride or triglyceride used as substrate
Protocol: (8) Substrate specificity: The substrate specificity of the monoglyceride lipase in this invention is investigated under conditions where the below-described assay method of enzymatic activity for the monoglyceride lipase is conducted.
MEASUREMENT METHOD OF ENZYMATIC ACTIVITY OF MONOGLYCERIDE LIPASE
as §2

| SMILES | Glycerol hydrolyzed from substrate in the presence of the monoglyceride lipase |
| --- | --- |
| CCCCCCCC/C=C\CCCCCCCC(=O)OCC(COC(=O)CCCCCCC/C=C\CCCCCCCC)OC(=O)CCCCCCC/C=C\CCCCCCCC [Triolein] | no glycerol hydrolyzed is detected |
| CCCCC/C=C\C/C=C\CCCCCCCC(=O)OCC(O)COC(=O)CCCCCCC/C=C\C/C=C\CCCCC [1,3-dilinolein] | no glycerol hydrolyzed is detected |
| CCCCC/C=C\C/C=C\CCCCCCCC(=O)OCC(CO)OC(=O)CCCCCCC/C=C\C/C=C\CCCCC (stereo not drawn) [1,2-dilinolein] | no glycerol hydrolyzed is detected |

same assay, conditions: relative activity of monoglyceride lipase on the substrate; Monolaurin 100.0

| Activity of lipase (%) | SMILES |
| --- | --- |
| 0% | CCCC(=O)OCC(COC(=O)CCC)OC(=O)CCC [Tributyrin] |
| 89.1% | CCCCCCCCCC(=O)OCC(O)CO (stereo not drawn) [Monocaprin] |
| 47.1% | CCCC(=O)OCC(O)CO (stereo not drawn) [Monobutyrin] |
| 0% | CC(=O)OCC(COC(C)=O)OC(C)=O [Triacetin] |
| 39.5% | CCCCCCCCCCCCCCCC(=O)OCC(O)CO (stereo not drawn) [Monopalmitin] |
| 85.7% | CCCCCCCCCCCCCC(=O)OCC(O)CO (stereo not drawn) [Monomyristin] |

The next lines start with the molecule.

| SMILES | Activity of lipase (%) |
| --- | --- |
| CC(=O)OCC(O)CO (stereo not drawn) [Monoacetin] | 10.1% |
| CCCCCCCC/C=C\CCCCCCCC(=O)OCC(COC(=O)CCCCCCC/C=C\CCCCCCCC)OC(=O)CCCCCCC/C=C\CCCCCCCC [Triolein] | 0% |
| CCCCCCCCCCCC(=O)OCC(O)CO (stereo not drawn) [Monolaurin] | 100.0% |
| CCCCCCCCCCCCCCCCCC(=O)OCC(O)CO (stereo not drawn) [Monostearin] | 27.6% |
| CCCCC/C=C\C/C=C\CCCCCCCC(=O)OCC(O)COC(=O)CCCCCCC/C=C\C/C=C\CCCCC [1,3-dilinolein] | 0% |
| CCCCCCCC/C=C\CCCCCCCC(=O)OCC(O)CO (stereo not drawn) [Monoolein] | 56.3% and 75.6% |
| CCCCC/C=C\C/C=C\CCCCCCCC(=O)OCC(CO)OC(=O)CCCCCCC/C=C\C/C=C\CCCCC (stereo not drawn) [1,2-dilinolein] | 0% |
